{"source": "patent US8324188B2", "about": "“Combinations of ET-18-O-CH3and anti-cancer agents for the treatment of cancer” (priority 2006, dated 2012)", "key": {"HeLa": {"tested_on": "HeLa", "settings": "mean ± SD from three independent experiments, read-out: ED50 values for induction of apoptosis; cited from earlier work"}, "U87MG": {"tested_on": "U87MG", "assay": "WST-1 proliferation assay, U87MG", "type": "cell-based, human", "method": "(§1) AP-121 was prepared as 5 mM stock solution in distilled sterile water, Temozolomide (TMZ) (Haorui Pharma-Chem, Inc., Edison, N.J.) was prepared as 100 mM in sterile filtrated DMSO; Adriamycin (ADR) (Sigma) was prepared as 1 mM in distilled sterile water; Camptothecin (CTP) (Sigma) was prepared as 10 mM solution in 0.1 N NaOH; Tarceva (Proteinkinase, Germany) was prepared as 5 mM solution in sterile DMSO. All compound stocks were kept at −20° C. 2000 cells were plated in each well of 96-well flat bottom plates, and incubated overnight at 37 °C in 5% CO2. The growth of plated cells was measured by adding […] of WST-1 reagent (Roche Applied Sciences, Germany) to 3 control wells and measuring the absorbance at 650 nm and at 450 nm, respectively, with a SpectraMax250 plate reader. […] After this incubation, VVST-1 reagent was added to the wells and OD650-OD450 values were calculated as before. six wells were assayed for each conditions and standard deviation was determined: all experiments were performed at least three times independently. […] Six different concentrations of each drug were used in combinations index measurements and compared to +/− cells, and compared to controls without compound."}, "A431": {"tested_on": "A431", "settings": "mean ± SD from three independent experiments, read-out: ED50 values for induction of apoptosis; cited from earlier work"}, "U118MG": {"tested_on": "U118MG", "assay": "WST-1 proliferation assay, U118MG", "type": "cell-based, human", "method": "as §1, with “compound. Each combination was repeated 6 times at 2 different time points (24 and 96 hours), each of the above experiments was repeated 3 times to obtain valid results.” for “compound.”"}, "HMEC1 endothelial cells": {"tested_on": "HMEC1 endothelial cells", "settings": "cited from earlier work"}, "A172": {"tested_on": "A172", "assay": "WST-1 proliferation assay, A172", "type": "cell-based, human", "method": "as §1"}, "[1]": {"tested_on": "androgen-insensitive LNCaP C4-2", "assay": "apoptosis in LNCaP C4-2 cells", "type": "cell-based, human", "settings": "data not shown"}, "[2]": {"tested_on": "androgen-insensitive LNCaP-Res cells", "assay": "apoptosis in LNCaP-Res cells", "type": "cell-based, human", "settings": "data not shown"}}, "data": [{"smiles": "CCCCCCCCCCCCCCCCCCOCC(COP(=O)([O-])OCC[N+](C)(C)C)OC", "note": "(racemic) [AP-121, 1-O-octadecyl-2-O-methyl-glycero-3-phosphocholine]", "values": [{"measurement": "EC50", "setting": "HeLa", "value": "5.17 ± 1.6", "unit": "µM"}, {"measurement": "IC50", "setting": "U87MG; Homo sapiens, U-87 MG", "value": 8.5, "unit": "µM"}, {"measurement": "EC50", "setting": "U87MG; Homo sapiens, U-87 MG, single agent or compound mixture as labelled (arrays A2, A1), read-out: ED50 (the source's name)", "value": 6.8, "unit": "µM"}, {"measurement": "normalized ED50 (arrays B2, B1)", "setting": "U87MG; ratio to the largest value", "value": 1}, {"measurement": "EC50", "setting": "A431", "value": "15.5 ± 2.9", "unit": "µM"}, {"measurement": "IC50", "setting": "U118MG; Homo sapiens, U-118-MG", "value": 3.6, "unit": "µM"}, {"measurement": "EC50", "setting": "U118MG; Homo sapiens, U-118-MG, single agent or compound mixture as labelled (arrays A2, A1), read-out: ED50 (the source's name)", "value": 4.8, "unit": "µM"}, {"measurement": "normalized ED50 (arrays B2, B1)", "setting": "U118MG; ratio to the largest value", "value": 0.71}, {"measurement": "anti-angiogenic activity", "setting": "HMEC1 endothelial cells", "value": 60, "unit": "nM"}, {"measurement": "IC50", "setting": "A172; Homo sapiens, A 172", "value": 4.6, "unit": "µM"}, {"measurement": "EC50", "setting": "A172; Homo sapiens, A 172, single agent or compound mixture as labelled (arrays A2, A1), read-out: ED50 (the source's name)", "value": 4.2, "unit": "µM"}, {"measurement": "normalized ED50 (arrays B2, B1)", "setting": "A172; ratio to the largest value", "value": 0.62}, {"measurement": "apoptosis in CHEM+RT treated cells", "setting": "[1]", "value": "enhancement of apoptosis"}, {"measurement": "apoptosis in CHEM+RT treated cells", "setting": "[2]", "value": "enhancement of apoptosis"}]}]}
